# Reference: ChEMBL document CHEMBL5505967, “Design and synthesis of 4-amino-2',4'-dihydroxyindanone derivatives as potent inhibitors of tyrosinase and melanin biosynthesis in human melanoma cells” (Eur J Med Chem, 2024)
# Tests used:
# Mushroom tyrosinase = Mushroom tyrosinase (Agaricus bisporus, UniProt O42713+Q00024+C7FF04+C7FF05); assay: Inhibition of mushroom tyrosinase using L-DOPA as substrate preincubated for 10 mins followed by substrate addition measured after 10 mins by absorbance based spectramax microplate reader assay; type: protein assay
# MNT-1 [1] = assay: cells; conditions: Homo sapiens, MNT-1, 336 h
# Description: Cytotoxicity against human MNT-1 cells incubated for 14 days by resazurin assay
# MNT-1 [2] = assay: cells; conditions: Homo sapiens, MNT-1, 96 h
# Description: Cytotoxicity against human MNT-1 cells incubated for 4 days by resazurin assay
# MNT-1 [3] = assay: cells; conditions: Homo sapiens, MNT-1, 96 h; remark: listed apart in the source
# Description: Inhibition of melanogenesis in human MNT-1 cells incubated for 4 days
# MNT-1 [4] = assay: cells; conditions: Homo sapiens, MNT-1, 336 h; remark: listed apart in the source
# Description: Inhibition of melanogenesis in human MNT-1 cells incubated for 14 days
# Tyrosinase [5] = target: T1, Tyrosinase (Homo sapiens, UniProt P14679)
# T1 sequence (P14679 whole entry): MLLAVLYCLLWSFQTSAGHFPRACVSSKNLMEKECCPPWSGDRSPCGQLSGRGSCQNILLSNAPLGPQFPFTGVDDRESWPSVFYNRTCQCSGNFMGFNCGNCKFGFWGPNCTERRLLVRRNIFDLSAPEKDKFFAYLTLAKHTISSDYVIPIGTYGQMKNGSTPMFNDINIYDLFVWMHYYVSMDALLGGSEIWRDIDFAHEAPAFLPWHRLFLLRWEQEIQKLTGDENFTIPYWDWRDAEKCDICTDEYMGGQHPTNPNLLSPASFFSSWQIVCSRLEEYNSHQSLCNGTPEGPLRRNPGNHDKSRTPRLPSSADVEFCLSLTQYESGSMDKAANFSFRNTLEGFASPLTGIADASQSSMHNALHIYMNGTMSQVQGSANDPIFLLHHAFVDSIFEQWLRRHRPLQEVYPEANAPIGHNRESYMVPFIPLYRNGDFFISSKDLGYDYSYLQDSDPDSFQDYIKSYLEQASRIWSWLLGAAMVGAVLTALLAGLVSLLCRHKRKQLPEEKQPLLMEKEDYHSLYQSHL
# Description: Inhibition of tyrosinase in human MNT-1 cells using L-DOPA as substrate preincubated for 10 mins followed by substrate addition measured after 180 mins by absorbance based spectramax microplate reader assay
# Tyrosinase [6] = target: T1, Tyrosinase; assay: Inhibition of His-tagged human tyrosinase expressed in HEK293 cells using L-DOPA as substrate by microplate reader analysis
Structure (SMILES),IC50 (Mushroom tyrosinase) [µM],IC50 (MNT-1 [3]) [µM],IC50 (MNT-1 [4]) [µM],IC50 (Tyrosinase [5]) [µM],IC50 (Tyrosinase [6]) [µM],CC50 (MNT-1 [1]) [µM],CC50 (MNT-1 [2]) [µM]
O=C(Nc1cccc2c1C/C(=C\c1ccc(O)cc1O)C2=O)c1ccccc1,0.1,,,,,,
N#Cc1cccc2c1C/C(=C\c1ccc(O)cc1O)C2=O,0.26,,,,,,
CC(C)C(=O)Nc1nc(-c2ccc(O)cc2O)cs1,,10,0.28,0.17,,36,> 100
CN(C)c1cccc2c1C/C(=C\c1ccc(O)cc1O)C2=O,0.083,,,,,,
O=C1/C(=C/c2ccc(O)cc2O)Cc2c1cccc2[N+](=O)[O-],0.16,,,> 100,,,
O=C1/C(=C/c2ccc(O)cc2O)Cc2c(F)cccc21,0.15,,,,,,
COc1cccc2c1C/C(=C\c1ccc(O)cc1O)C2=O,0.16,,,,,,
O=C1/C(=C/c2ccc(O)cc2O)Cc2c1cccc2C(F)(F)F,0.18,,,> 100,,,
Oc1cccc(O)c1 [RESORCINOL],,,,,> 3000,,

# Continued, in another order:
IC50 (Mushroom tyrosinase) [µM],IC50 (MNT-1 [3]) [µM],IC50 (MNT-1 [4]) [µM],IC50 (Tyrosinase [5]) [µM],IC50 (Tyrosinase [6]) [µM],Structure (SMILES),CC50 (MNT-1 [1]) [µM],CC50 (MNT-1 [2]) [µM]
0.46,,,,,CC(C)[C@@H](N)C(=O)Nc1cccc2c1C/C(=C\c1ccc(O)cc1O)C2=O,,
0.014,3.2,0.77,,,CNc1cccc2c1C/C(=C\c1ccc(O)cc1O)C2=O,29,78
0.06,7,2.1,,,CC(C)C(=O)Nc1cccc2c1C/C(=C\c1ccc(O)cc1O)C2=O,62,> 100
0.009,19,3.3,,,CC(=O)Nc1cccc2c1C/C(=C\c1ccc(O)cc1O)C2=O,67,> 100
0.006,24,2,,,CCCC(=O)Nc1cccc2c1C/C(=C\c1ccc(O)cc1O)C2=O,77,> 100
0.6,19,4.6,,,C[C@H](N)C(=O)Nc1cccc2c1C/C(=C\c1ccc(O)cc1O)C2=O,94,> 100
0.39,29,12,,,NCC(=O)Nc1cccc2c1C/C(=C\c1ccc(O)cc1O)C2=O,> 100,> 100
0.014,8,3.1,,,CCC(=O)Nc1cccc2c1C/C(=C\c1ccc(O)cc1O)C2=O,65,> 100
0.09,,,,,O=C1/C(=C/c2ccc(O)cc2O)Cc2c(O)cccc21,,
0.027,3.8,0.53,,,Nc1cccc2c1C/C(=C\c1ccc(O)cc1O)C2=O,66,> 100
0.086,,,,,O=C1/C(=C/c2ccc(O)cc2O)Cc2c(Br)cccc21,,
0.019,21,4.1,,,Cc1cccc2c1C/C(=C\c1ccc(O)cc1O)C2=O,61,> 100
